The results in this text go back to patent publication EP4745135A1 (Gluetacs Therapeutics (Shanghai) Co., Ltd., priority 2023, dated 2025).

SMILES strings stand for the structures.

For one assay, the target named is T1, IKZF3 (Homo sapiens, UniProt Q96SW2+Q9UKT9).
T1 construct: effects of the compounds of the present disclosure on the expression of target proteins in cells; endogenous in cells; host or cells: human PBMCs (Milecell Biotechnologies)
Nature of the assay: Western blot, degradation of substrate protein in hPBMCs. The format is cell-based. Background: In western blotting, separated proteins are transferred to a membrane and probed.

Another assay deals with T2, IKZF1 (Homo sapiens, UniProt Q13422+Q96SW2).
T2 construct: effects of the compounds of the present disclosure on the expression of target proteins in cells; endogenous in cells; host or cells: human PBMCs (Milecell Biotechnologies)
T2 sequence (Q13422 whole entry): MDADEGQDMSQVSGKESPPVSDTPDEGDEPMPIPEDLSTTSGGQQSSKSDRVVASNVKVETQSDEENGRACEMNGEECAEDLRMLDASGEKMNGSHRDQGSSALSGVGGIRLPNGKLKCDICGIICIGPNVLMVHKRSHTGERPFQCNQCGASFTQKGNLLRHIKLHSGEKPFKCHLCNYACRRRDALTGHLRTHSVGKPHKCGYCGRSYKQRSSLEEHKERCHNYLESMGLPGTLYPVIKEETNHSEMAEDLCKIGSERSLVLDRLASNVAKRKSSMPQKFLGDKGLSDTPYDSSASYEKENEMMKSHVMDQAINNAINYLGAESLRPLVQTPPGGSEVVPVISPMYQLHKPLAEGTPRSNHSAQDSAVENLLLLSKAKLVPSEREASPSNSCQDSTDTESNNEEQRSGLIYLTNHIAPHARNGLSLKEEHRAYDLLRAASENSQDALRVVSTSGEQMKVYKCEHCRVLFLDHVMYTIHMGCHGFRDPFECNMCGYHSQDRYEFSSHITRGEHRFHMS
T2 sequence (Q96SW2 whole entry): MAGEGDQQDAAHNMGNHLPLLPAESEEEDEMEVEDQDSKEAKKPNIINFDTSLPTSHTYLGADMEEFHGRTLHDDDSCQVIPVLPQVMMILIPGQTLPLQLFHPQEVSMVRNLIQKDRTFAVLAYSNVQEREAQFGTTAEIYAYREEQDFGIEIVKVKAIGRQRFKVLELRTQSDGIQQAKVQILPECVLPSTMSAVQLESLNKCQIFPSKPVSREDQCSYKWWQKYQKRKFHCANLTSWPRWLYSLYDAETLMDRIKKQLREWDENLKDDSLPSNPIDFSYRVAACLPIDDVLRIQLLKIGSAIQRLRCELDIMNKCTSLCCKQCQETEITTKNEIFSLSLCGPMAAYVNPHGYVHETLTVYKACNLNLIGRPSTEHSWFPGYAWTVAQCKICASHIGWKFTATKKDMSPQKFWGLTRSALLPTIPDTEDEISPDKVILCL
T2 sequence (Q16531 whole entry partner): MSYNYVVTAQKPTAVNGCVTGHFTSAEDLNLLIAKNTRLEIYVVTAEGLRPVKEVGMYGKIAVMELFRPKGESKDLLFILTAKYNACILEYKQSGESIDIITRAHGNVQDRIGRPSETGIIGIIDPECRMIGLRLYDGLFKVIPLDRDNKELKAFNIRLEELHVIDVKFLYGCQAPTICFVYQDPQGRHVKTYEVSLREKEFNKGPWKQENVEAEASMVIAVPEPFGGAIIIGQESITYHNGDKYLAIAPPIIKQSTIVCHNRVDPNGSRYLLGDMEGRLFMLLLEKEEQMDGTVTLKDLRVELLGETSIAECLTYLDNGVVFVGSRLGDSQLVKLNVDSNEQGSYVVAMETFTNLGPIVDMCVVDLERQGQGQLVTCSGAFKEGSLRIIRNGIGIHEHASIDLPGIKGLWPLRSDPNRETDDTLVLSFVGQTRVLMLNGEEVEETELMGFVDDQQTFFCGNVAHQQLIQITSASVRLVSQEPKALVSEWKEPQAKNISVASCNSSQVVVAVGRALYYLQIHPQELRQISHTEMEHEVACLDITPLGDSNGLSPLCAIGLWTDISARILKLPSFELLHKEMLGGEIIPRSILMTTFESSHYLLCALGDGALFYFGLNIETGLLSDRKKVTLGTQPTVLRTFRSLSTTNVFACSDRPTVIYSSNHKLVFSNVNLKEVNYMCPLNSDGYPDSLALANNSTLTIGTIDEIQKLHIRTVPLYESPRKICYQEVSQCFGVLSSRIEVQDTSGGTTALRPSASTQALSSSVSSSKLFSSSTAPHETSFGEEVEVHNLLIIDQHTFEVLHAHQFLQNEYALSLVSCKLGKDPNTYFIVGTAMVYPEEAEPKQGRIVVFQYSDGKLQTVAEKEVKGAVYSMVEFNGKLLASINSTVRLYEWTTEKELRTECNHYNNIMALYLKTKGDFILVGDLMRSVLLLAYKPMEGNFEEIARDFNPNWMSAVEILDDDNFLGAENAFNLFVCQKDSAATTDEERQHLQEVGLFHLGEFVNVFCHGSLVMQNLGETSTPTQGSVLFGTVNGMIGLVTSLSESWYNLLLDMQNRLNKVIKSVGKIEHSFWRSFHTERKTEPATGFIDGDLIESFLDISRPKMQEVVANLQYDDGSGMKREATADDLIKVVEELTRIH
The assay is described as above. The format is cell-based.

For a further assay, the target named is T3, IKZF2 (Homo sapiens, UniProt Q96SW2+Q9UKS7).
T3 construct: effects of the compounds of the present disclosure on the expression of target proteins in cells; endogenous in cells; host or cells: human PBMCs (Milecell Biotechnologies)
T3 sequence (Q9UKS7 whole entry): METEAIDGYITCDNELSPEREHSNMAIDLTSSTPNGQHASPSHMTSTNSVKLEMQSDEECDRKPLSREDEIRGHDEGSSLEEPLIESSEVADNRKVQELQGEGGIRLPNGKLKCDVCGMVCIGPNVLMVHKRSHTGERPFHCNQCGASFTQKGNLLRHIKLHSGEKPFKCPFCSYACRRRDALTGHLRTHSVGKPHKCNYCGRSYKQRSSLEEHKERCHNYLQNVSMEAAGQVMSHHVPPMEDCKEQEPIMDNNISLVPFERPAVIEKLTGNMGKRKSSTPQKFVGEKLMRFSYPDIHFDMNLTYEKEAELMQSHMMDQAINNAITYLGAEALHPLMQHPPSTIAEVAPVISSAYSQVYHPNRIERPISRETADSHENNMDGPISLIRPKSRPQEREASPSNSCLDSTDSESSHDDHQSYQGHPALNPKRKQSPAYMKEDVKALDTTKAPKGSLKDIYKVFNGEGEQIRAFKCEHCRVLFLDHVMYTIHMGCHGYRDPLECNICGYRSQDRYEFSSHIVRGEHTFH
T3 sequence (Q96SW2 whole entry): as the sequence (Q96SW2 whole entry) above
T3 sequence (Q16531 whole entry partner): as the sequence (Q16531 whole entry partner) above
The description is as above. The format is cell-based.

The target of another assay is T4, CK1α (Homo sapiens, UniProt P48729+Q96SW2).
T4 construct: effects of the compounds of the present disclosure on the expression of target proteins in cells; endogenous in cells; host or cells: human PBMCs (Milecell Biotechnologies)
T4 sequence (P48729 whole entry): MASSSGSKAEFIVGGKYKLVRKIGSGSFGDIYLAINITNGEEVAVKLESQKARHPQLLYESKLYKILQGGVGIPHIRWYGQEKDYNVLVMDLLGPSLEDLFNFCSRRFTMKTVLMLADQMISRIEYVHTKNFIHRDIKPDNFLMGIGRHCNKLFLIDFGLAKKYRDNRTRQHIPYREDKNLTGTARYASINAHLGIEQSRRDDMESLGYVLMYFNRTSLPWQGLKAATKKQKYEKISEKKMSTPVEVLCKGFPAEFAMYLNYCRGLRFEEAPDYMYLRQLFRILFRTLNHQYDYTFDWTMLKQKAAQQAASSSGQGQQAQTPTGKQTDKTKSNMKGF
T4 sequence (Q96SW2 whole entry): as the sequence (Q96SW2 whole entry) above
T4 sequence (Q16531 whole entry partner): as the sequence (Q16531 whole entry partner) above
The description is as above. The format is cell-based.

A further assay has as its target T5, WEE1 (Homo sapiens, UniProt P30291+Q96SW2).
T5 construct: effects of the compounds of the present disclosure on the expression of target proteins in cells; endogenous in cells; host or cells: human PBMCs (Milecell Biotechnologies)
The description is as above. The format is cell-based.

Assay [1] relates to Human multiple myeloma peripheral blood B lymphocyte cell (RPMI-8226). Nature of the assay: Tumor cell proliferation inhibition (CellTiter-Meiluncell luminescent cell viability assay). Conditions: RPMI-8226, 96 h; for inhibition at 0.01 µM: read-out: Inhibition Rate at 10 nM (%); for inhibition at 0.5 µM: read-out: Inhibition Rate at 500 nM (%).
For assay [2], the target named is T6, human Cereblon WT GST-tagged protein (Homo sapiens, UniProt Q96SW2).
T6 construct: purchased CISBIO 64BDCRBNPEH
T6 sequence (Q96SW2 whole entry): as the sequence (Q96SW2 whole entry) above
Nature of the assay: CRBN-binding affinity, HTRF (CEREBLON BINDING kit). Conditions: for inhibition at 0.5 µM: read-out: Inhibition Rate at 0.5 µM (%); for inhibition at 2 µM: read-out: Inhibition Rate at 2 µM (%). (In TR-FRET formats the signal depends on donor and acceptor labels being close together.)

In assay [3] the test system is Human acute T lymphocytic leukemia cell (Molt4). Nature of the assay: Tumor cell proliferation inhibition (CellTiter-Meiluncell luminescent cell viability assay). As to conditions: MOLT-4, 96 h; for inhibition at 0.01 µM: read-out: Inhibition Rate at 10 nM (%); for inhibition at 0.5 µM: read-out: Inhibition Rate at 500 nM (%).
Assay [4] relates to Human myeloid monocytic leukemia cell (MV-4-11). The assay is described as above. As to conditions: MV4-11, 96 h; for inhibition at 0.01 µM: read-out: Inhibition Rate at 10 nM (%); for inhibition at 0.5 µM: read-out: Inhibition Rate at 500 nM (%).
The subject of assay [5] is Human multiple myeloma cell (MM.1S). The description is as above. Conditions: Homo sapiens, MM1.S, 96 h; for inhibition at 0.01 µM: read-out: Inhibition Rate at 10 nM (%); for inhibition at 0.5 µM: read-out: Inhibition Rate at 500 nM (%).
The subject of a further assay is GSPT1. Nature of the assay: Western blot, degradation of substrate protein in hPBMCs. The format is cell-based, Human.
The test system of assay [6] is Human breast cancer cell (MCF-7). Nature of the assay: Tumor cell proliferation inhibition (CellTiter-Meiluncell luminescent cell viability assay). Conditions: MCF7, 96 h; for inhibition at 0.5 µM: read-out: Inhibition Rate at 500 nM (%).
[7] abbreviates: Western blot, 24 hours of compound treatment, compounds tested at 50 nM and 500 nM (concentration for the table not stated).
The mark [8] stands for this setting: 24 hours treatment, compounds at 50 nM and 500 nM (concentration behind the class not stated).

T5 sequence (P30291 whole entry): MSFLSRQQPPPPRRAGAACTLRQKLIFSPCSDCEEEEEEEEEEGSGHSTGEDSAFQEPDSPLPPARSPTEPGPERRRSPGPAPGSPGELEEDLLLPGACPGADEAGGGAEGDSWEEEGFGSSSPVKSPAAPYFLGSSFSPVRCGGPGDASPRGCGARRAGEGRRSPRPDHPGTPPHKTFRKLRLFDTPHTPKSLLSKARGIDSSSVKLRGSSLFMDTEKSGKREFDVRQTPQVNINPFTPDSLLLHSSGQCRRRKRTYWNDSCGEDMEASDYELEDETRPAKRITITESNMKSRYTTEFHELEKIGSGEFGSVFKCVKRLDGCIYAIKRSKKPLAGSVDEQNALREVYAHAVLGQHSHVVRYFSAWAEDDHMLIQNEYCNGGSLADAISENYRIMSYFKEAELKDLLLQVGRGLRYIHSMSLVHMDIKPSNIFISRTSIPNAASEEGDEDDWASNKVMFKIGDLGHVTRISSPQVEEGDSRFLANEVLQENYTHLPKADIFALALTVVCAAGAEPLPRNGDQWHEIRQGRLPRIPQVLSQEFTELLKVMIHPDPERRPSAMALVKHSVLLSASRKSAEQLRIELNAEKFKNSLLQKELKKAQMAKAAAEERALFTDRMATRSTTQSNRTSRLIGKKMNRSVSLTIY
T5 sequence (Q96SW2 whole entry): as the sequence (Q96SW2 whole entry) above
T5 sequence (Q16531 whole entry partner): as the sequence (Q16531 whole entry partner) above
T1 sequence (Q9UKT9 whole entry): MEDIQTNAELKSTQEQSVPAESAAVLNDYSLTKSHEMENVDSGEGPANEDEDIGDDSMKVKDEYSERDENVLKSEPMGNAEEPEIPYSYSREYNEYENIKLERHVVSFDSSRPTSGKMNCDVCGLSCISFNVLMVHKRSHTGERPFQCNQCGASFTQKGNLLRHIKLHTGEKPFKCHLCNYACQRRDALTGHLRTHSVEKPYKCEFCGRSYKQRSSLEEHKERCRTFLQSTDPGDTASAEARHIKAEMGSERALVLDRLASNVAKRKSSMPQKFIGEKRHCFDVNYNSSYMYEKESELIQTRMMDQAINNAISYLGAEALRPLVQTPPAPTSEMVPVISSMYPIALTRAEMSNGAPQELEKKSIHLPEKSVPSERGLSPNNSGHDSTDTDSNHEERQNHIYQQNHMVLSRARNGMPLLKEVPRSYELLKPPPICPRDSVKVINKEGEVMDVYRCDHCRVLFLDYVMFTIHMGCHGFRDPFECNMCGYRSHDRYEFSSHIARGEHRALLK
T1 sequence (Q96SW2 whole entry): as the sequence (Q96SW2 whole entry) above
T1 sequence (Q16531 whole entry partner): as the sequence (Q16531 whole entry partner) above

Broadly, the inhibition is the change of the read-out against control, counted positive when it falls. Turning to `O=C1CCC(N2Cc3cc(CN4CC=C(c5ccnc(Cl)c5Cl)CC4)ccc3C2=S)C(=O)N1` (stereo not drawn) [GT-08482, 3-(5-((2',3'-dichloro-3,6-dihydro-[4,4'-bipyridin]-1(2H)-yl)methyl)-1-thioxoisoindolin-2-yl)piperidine-2,6-dione], the “IKZF3 substrate protein remaining %” value at IKZF3 (setting [7]) was “B (80%< substrate protein remaining %≤ 100%)”. Besides, the “IKZF 1 substrate protein remaining %” value at IKZF1 (setting [7]) was “B (80%< substrate protein remaining %≤ 100%)”. Further, the “IKZF2 substrate protein remaining %” value at IKZF2 (setting [7]) is on record as “B (80%< substrate protein remaining %≤ 100%)”. In addition, the “CK1α substrate protein remaining %” value at CK1α (setting [7]) was “B (80%< substrate protein remaining %≤ 100%)”. The “Wee1 substrate protein remaining %” value at WEE1 (setting [7]) was “A (0% ≤ substrate protein remaining % ≤ 80%)”. For the same compound, the inhibition at 0.01 µM is 10 to 20% in assay [1], -5 to 0% in assay [3], 40 to 60% in [4] and 50 to 60% in [5]. Moreover, the inhibition at 0.5 µM in [1] was in the range of 60 to 70%; in assay [2] it was 60 to 80%; in [3], 80 to 100%; in assay [4] it was 80 to 100%; in assay [5], 80 to 100%. Further, the inhibition at 2 µM in assay [2] is 80 to 100%. For the same compound, the “GSPT1 substrate protein remaining %” value in the assay with GSPT1 (setting [7]) was “A (0% ≤ substrate protein remaining % ≤ 80%)”.

`O=C1CCC(N2Cc3cc(CN4CC=C(c5cncc(Cl)c5Cl)CC4)ccc3C2=S)C(=O)N1` (stereo not drawn) [GT-08489, 3-(5-((4,5-dichloro-3',6'-dihydro-[3,4'-bipyridin]-1'(2'H)-yl)methyl)-1-thioxoisoindolin-2-yl)piperidine-2,6-dione]: the “IKZF3 substrate protein remaining %” value at IKZF3 (setting [7]) is recorded as “A (0% ≤ substrate protein remaining % ≤ 80%)”. For the same compound, the “IKZF 1 substrate protein remaining %” value at IKZF1 (setting [7]) is given as “B (80%< substrate protein remaining %≤ 100%)”. In addition, the “IKZF2 substrate protein remaining %” value at IKZF2 (setting [7]) was “A (0% ≤ substrate protein remaining % ≤ 80%)”. The “CK1α substrate protein remaining %” value at CK1α (setting [7]) is on record as “B (80%< substrate protein remaining %≤ 100%)”. For the same compound, the “Wee1 substrate protein remaining %” value on WEE1 (setting [7]) is on record as “A (0% ≤ substrate protein remaining % ≤ 80%)”. Further, the inhibition at 0.01 µM fell in the range of 0 to 5% in [1], 0 to 5% in assay [3], 30 to 40% in [4] and 10 to 20% in [5]. For the same compound, the inhibition at 0.5 µM in assay [1] was in the range of 70 to 80%; in [2], 60 to 80%; in assay [3] it was 80 to 100%; in [4] it was 80 to 100%; in assay [6], 50 to 60%; in [5], 80 to 100%. The inhibition at 2 µM in assay [2] lay in the range of 80 to 100%. In addition, the “GSPT1 substrate protein remaining %” value in the assay with GSPT1 (setting [7]) is reported as “A (0% ≤ substrate protein remaining % ≤ 80%)”.

Take `O=C1CCC(N2Cc3cc(CN4CC=C(c5cncc(Cl)c5)CC4)ccc3C2=S)C(=O)N1` (stereo not drawn) [GT-08490, 3-(5-((5-chloro-3',6'-dihydro-[3,4'-bipyridin]-1'(2'H)-yl)methyl)-1-thioxoisoindolin-2-yl)piperidine-2,6-dione]: the “IKZF3 substrate protein remaining %” value at IKZF3 (setting [7]) is “A (0% ≤ substrate protein remaining % ≤ 80%)”. Moreover, the “IKZF 1 substrate protein remaining %” value on IKZF1 (setting [7]) is “B (80%< substrate protein remaining %≤ 100%)”. Also, the “IKZF2 substrate protein remaining %” value on IKZF2 (setting [7]) is on record as “A (0% ≤ substrate protein remaining % ≤ 80%)”. For the same compound, the “CK1α substrate protein remaining %” value at CK1α (setting [7]) is “B (80%< substrate protein remaining %≤ 100%)”. Besides, the “Wee1 substrate protein remaining %” value on WEE1 (setting [7]) is reported as “A (0% ≤ substrate protein remaining % ≤ 80%)”. Also, the inhibition at 0.01 µM in assay [1] lay in the range of 20 to 30%; in assay [3] it was 0 to 5%; in [4], 40 to 60%; in assay [6] (read-out: Inhibition Rate at 10 nM (%)), 30 to 40%; in [5] it was 50 to 60%. For the same compound, the inhibition at 0.5 µM in [1] lay in the range of 70 to 80%; in assay [2], 60 to 80%; in assay [3], 80 to 100%; in [4] it was 80 to 100%; in assay [6], 50 to 60%; in assay [5], 80 to 100%. In assay [2], the inhibition at 2 µM was in the range of 80 to 100%. For the same compound, in the assay with GSPT1 (setting [7]), the “GSPT1 substrate protein remaining %” value is recorded as “A (0% ≤ substrate protein remaining % ≤ 80%)”.

For the compound `Cc1cccc(N2CCN(Cc3ccc4c(c3)CN(C3CCC(=O)NC3=O)C4=S)CC2)c1` (stereo not drawn) [GT-08602, 3-(1-thioxo-5-((4-(m-tolyl)piperazin-1-yl)methyl)isoindolin-2-yl)piperidine-2,6-dione], the “IKZF3 substrate protein remaining %” value at IKZF3 (setting [7]) was “B (80%< substrate protein remaining %≤ 100%)”. For the same compound, the “IKZF 1 substrate protein remaining %” value at IKZF1 (setting [7]) is given as “B (80%< substrate protein remaining %≤ 100%)”. Besides, on IKZF2 (setting [7]), the “IKZF2 substrate protein remaining %” value is listed as “B (80%< substrate protein remaining %≤ 100%)”. Besides, the “CK1α substrate protein remaining %” value on CK1α (setting [7]) is “B (80%< substrate protein remaining %≤ 100%)”. In addition, the “Wee1 substrate protein remaining %” value at WEE1 (setting [7]) is “A (0% ≤ substrate protein remaining % ≤ 80%)”. Further, the inhibition at 0.01 µM in assay [1] is 10 to 20%; in assay [3], -5 to 0%; in assay [4], 18 to 25%; in assay [5], 10 to 20%. Besides, the inhibition at 0.5 µM lay within 70 to 80% in [1]; 40 to 53% in assay [2]; 80 to 100% in assay [3]; 80 to 100% in assay [4]; 80 to 100% in [5]. The inhibition at 2 µM in assay [2] was in the range of 80 to 100%. The “GSPT1 substrate protein remaining %” value with GSPT1 (setting [7]) is “A (0% ≤ substrate protein remaining % ≤ 80%)”.

Consider `O=C1CCC(N2Cc3cc(CN4CCC(c5cccc(Br)c5)CC4)ccc3C2=S)C(=O)N1` (stereo not drawn) [GT-08617, 3-(5-((4-(3-bromophenyl)piperidin-1-yl)methyl)-1-thioxoisoindolin-2-yl)piperidine-2,6-dione], for which the “IKZF3 substrate protein remaining %” value at IKZF3 (setting [7]) is listed as “B (80%< substrate protein remaining %≤ 100%)”. Besides, the “IKZF 1 substrate protein remaining %” value at IKZF1 (setting [7]) was “B (80%< substrate protein remaining %≤ 100%)”. The “IKZF2 substrate protein remaining %” value on IKZF2 (setting [7]) is given as “B (80%< substrate protein remaining %≤ 100%)”. Further, on CK1α (setting [7]), the “CK1α substrate protein remaining %” value was “B (80%< substrate protein remaining %≤ 100%)”. In addition, the “Wee1 substrate protein remaining %” value on WEE1 (setting [7]) is “B (80%< substrate protein remaining %≤ 100%)”. The inhibition at 0.01 µM in assay [1] is 10 to 20%; in assay [3], 20 to 30%; in assay [4] it was 5 to 10%; in [5], 30 to 40%. The inhibition at 0.5 µM in assay [1] is 50 to 60%; in [2], 40 to 53%; in assay [3], 80 to 100%; in [4], 80 to 100%; in [5], 80 to 100%. In [2], the inhibition at 2 µM is 80 to 100%. The “GSPT1 substrate protein remaining %” value in the assay on GSPT1 (setting [7]) is recorded as “A (0% ≤ substrate protein remaining % ≤ 80%)”.

For the compound `O=C1CCC(N2Cc3cc(CN4CCN(c5n[nH]c6cc(F)ccc56)CC4)ccc3C2=S)C(=O)N1` (stereo not drawn) [GT-09260, 3-(5-((4-(6-fluoro-1H-indazol-3-yl)piperazin-1-yl)methyl)-1-thioxoisoindolin-2-yl)piperidine-2,6-dione], the “IKZF3 substrate protein remaining %” value at IKZF3 (setting [8]) is reported as “B (80%< substrate protein remaining %≤ 100%)”. Moreover, the “IKZF 1 substrate protein remaining %” value on IKZF1 (setting [8]) is on record as “B (80%< substrate protein remaining %≤ 100%)”. Moreover, the “IKZF2 substrate protein remaining %” value at IKZF2 (setting [8]) was “B (80%< substrate protein remaining %≤ 100%)”. Moreover, the “CK1α substrate protein remaining %” value on CK1α (setting [8]) is recorded as “B (80%< substrate protein remaining %≤ 100%)”. Further, the “Wee1 substrate protein remaining %” value on WEE1 (setting [8]) is recorded as “B (80%< substrate protein remaining %≤ 100%)”. Moreover, the inhibition at 0.01 µM in assay [1] is 5 to 10%; in assay [3], 20 to 30%; in assay [4], 18 to 25%; in assay [5], 10 to 20%. The inhibition at 0.5 µM in assay [1] was 40 to 50%; in assay [2], 60 to 80%; in assay [3], 80 to 100%; in assay [4], 80 to 100%; in assay [5], 80 to 100%. Further, the inhibition at 2 µM in assay [2] lay in the range of 80 to 100%. For the same compound, the “GSPT1 substrate protein remaining %” value in the assay with GSPT1 (setting [8]) is listed as “A (0% ≤ substrate protein remaining % ≤ 80%)”.
